In test [1] the target is T1, BaF3 cells expressing Tel-FGFR-4 and luciferase (Homo sapiens, UniProt P22455).
T1 construct: Luciferase is co-expressed as a viability reporter and is not part of the key; P41212 (Transcription factor ETV6)
Description: BaF3 cellular growth inhibition assay, Tel-FGFR-4 and luciferase (Bright-Glo). Type of test: cell-based. The settings on record: BaF3 Tel-FGFR-4 cells, 2 days incubation, 50% growth inhibition vs DMSO. The protocol:
(§1) Compounds' inhibitory activities against FGFR-4 or FGFR-1 were measured in BaF3 cells expressing Tel-FGFR-4 and luciferase or Tel-FGFR-1 and luciferase, whose growth was dependent on FGFR-4 or FGFR-1 kinase but independent of IL-3. The cells were plated in 384-well plates in RPMI1640 with 10% FBS. Compounds were added as 11-point dilutions. Cell viability was determined by Bright-Glo luciferase assay (Promega) after cells were incubated with compounds for 2 days. The IC50 value was determined as the concentration for 50% growth inhibition compared to DMSO treated cells (A: IC50<0.1 μM; B: IC50 between 0.1 μM and 1 μM; C: IC50 between 1 μM and 10 μM).

The target in test [2] is T2, BaF3 cells expressing Tel-FGFR-1 and luciferase (Homo sapiens, UniProt P11362).
T2 construct: Luciferase is co-expressed as a viability reporter and is not part of the key; P41212 (Transcription factor ETV6)
T2 sequence (P11362 478-767 limits assumed): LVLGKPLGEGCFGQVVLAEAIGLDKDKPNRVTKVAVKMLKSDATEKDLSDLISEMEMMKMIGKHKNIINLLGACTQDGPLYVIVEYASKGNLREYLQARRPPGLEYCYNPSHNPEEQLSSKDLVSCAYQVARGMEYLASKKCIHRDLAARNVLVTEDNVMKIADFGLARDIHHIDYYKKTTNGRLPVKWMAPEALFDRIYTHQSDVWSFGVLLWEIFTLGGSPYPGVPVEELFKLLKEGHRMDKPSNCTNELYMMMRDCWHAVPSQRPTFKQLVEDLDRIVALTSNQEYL
The test is described as follows: BaF3 cellular growth inhibition assay, Tel-FGFR-1 and luciferase (Bright-Glo). It counts as cell-based. The settings on record: BaF3 Tel-FGFR-1 cells, 2 days incubation, 50% growth inhibition vs DMSO. How it is done: as §1

T1 sequence (P22455 467-755 limits assumed): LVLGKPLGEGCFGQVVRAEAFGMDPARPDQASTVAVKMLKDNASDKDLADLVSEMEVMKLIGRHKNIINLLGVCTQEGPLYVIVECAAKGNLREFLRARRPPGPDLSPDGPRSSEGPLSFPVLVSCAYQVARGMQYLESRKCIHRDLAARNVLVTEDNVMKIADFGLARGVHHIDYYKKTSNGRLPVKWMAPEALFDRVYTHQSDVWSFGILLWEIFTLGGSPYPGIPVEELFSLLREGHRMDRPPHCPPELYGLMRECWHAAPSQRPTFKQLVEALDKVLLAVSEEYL

As for `C=CC(=O)Nc1cc(N2CCN(CC)CC2)ccc1Nc1cc2cc(C(=O)c3c(F)c(OC)cc(OC)c3F)oc2cn1` [Example 3, N-(2-((2-(2,6-difluoro-3,5-dimethoxybenzoyl)furo[2,3-c]pyridin-5-yl)amino)-5-(4-ethylpiperazin-1-yl)phenyl)acrylamide], the 50% inhibitory concentration (IC50) in test [1] was under 100 nM; in test [2] (numeric bounds), over 10000 nM.

`C=CC(=O)Nc1cc(N2CCN(CC)CC2)ccc1Nc1cc2c(C(=O)c3c(F)c(OC)cc(OC)c3F)c[nH]c2cn1` [Example 22, N-(2-((3-(2,6-difluoro-3,5-dimethoxybenzoyl)-1H-pyrrolo[2,3-c]pyridin-5-yl)amino)-5-(4-ethylpiperazin-1-yl)phenyl)acrylamide]: the IC50 was 100 to 1000 nM in test [1] and 1000 to 10000 nM in test [2] (class symbols).

In the case of `C=CC(=O)Nc1cc(N2CCN(CC)CC2)ccc1Nc1cc2cc(C(O)c3c(F)c(OC)cc(OC)c3F)oc2cn1` (single isomer, unassigned) [Example 13A, N-(2-((2-((2,6-difluoro-3,5-dimethoxyphenyl)(hydroxy)methyl)furo[2,3-c]pyridin-5-yl)amino)-5-(4-ethylpiperazin-1-yl)phenyl)acrylamide], the IC50 was under 100 nM in test [1] and over 10000 nM in test [2] (numeric bounds).

Consider `C=CC(=O)N[C@H]1CCOC[C@H]1Nc1ncc2oc(C(O)c3c(F)c(OC)cc(OC)c3F)cc2n1` (stereo partly drawn) [Example 34, N-((3S,4S)-3-((6-((2,6-difluoro-3,5-dimethoxyphenyl)(hydroxy)methyl)furo[3,2-d]pyrimidin-2-yl)amino)tetrahydro-2H-pyran-4-yl)acrylamide], for which the figures for the IC50 in test [1] and in test [2] (numeric bounds) were 1000 to 10000 nM and over 10000 nM, respectively.

`C=CC(=O)Nc1cc(N2CCN(CC)CC2)ccc1Nc1ncc2oc(C(O)c3c(F)c(OC)cc(OC)c3F)cc2n1` (racemic) [Example 31, (±)-N-(2-((6-((2,6-difluoro-3 ,5-dimethoxyphenyl)(hydroxy)methyl)furo[3,2-d]pyrimidin-2-yl)amino)-5-(4-ethylpiperazin-1-yl)phenyl)acrylamide]: the IC50 is under 100 nM in test [1] and 1000 to 10000 nM in test [2] (class symbols).

As to `C=CC(=O)Nc1cc(N2CCN(CC)CC2)ccc1Nc1ccc2c(ccn2Cc2c(F)c(OC)cc(OC)c2F)n1` [Example 1, N-(2-((1-(2,6-difluoro-3,5-dimethoxybenzyl)-1H-pyrrolo[3,2-b]pyridin-5-yl)amino)-5-(4-ethylpiperazin-1-yl)phenyl)acrylamide], the values for the IC50 in test [1] and in test [2] (numeric bounds) were 100 to 1000 nM and over 3300 nM, respectively.

For `C=CC(=O)Nc1cccc(C)c1Nc1cc2cc(C(=O)c3c(F)c(OC)cc(OC)c3F)sc2cn1` [Example 24, N-(2-((2-(2,6-difluoro-3,5-dimethoxybenzoyl)thieno[2,3-c]pyridin-5-yl)amino)-3-methylphenyl)acrylamide], the IC50 in test [1] was under 100 nM; in test [2] (numeric bounds), over 6650 nM.

Consider `C=CC(=O)Nc1cccc(Cl)c1Nc1cc2cc(C(=O)c3c(F)c(OC)cc(OC)c3F)oc2cn1` [Example 26, N-(3-chloro-2-((2-(2,6-difluoro-3,5-dimethoxybenzoyl)furo[2,3-c]pyridin-5-yl)amino)phenyl)acrylamide], for which the figures for the half-inhibitory concentration (IC50) in test [1] and in test [2] (numeric bounds) were under 100 nM and over 5100 nM, respectively.

In turn, `C=CC(=O)Nc1cc(N2CCN(CC)CC2)ccc1Nc1cc2cc(C(O)c3c(F)c(OC)cc(OC)c3F)oc2cn1` (single isomer, unassigned) [Example 13B, N-(2-((2-((2,6-difluoro-3,5-dimethoxyphenyl)(hydroxy)methyl)furo[2,3-c]pyridin-5-yl)amino)-5-(4-ethylpiperazin-1-yl)phenyl)acrylamide] returned a half-maximal inhibitory concentration (IC50) in test [2] (numeric bounds) of over 10000 nM.

Turning to `C=CC(=O)Nc1cccc(C)c1Nc1cc2cc(C(=O)c3c(F)c(OC)cc(OC)c3F)oc2cn1` [Example 17, N-(2-((2-(2,6-difluoro-3,5-dimethoxybenzoyl)furo[2,3-c]pyridin-5-yl)amino)-3-methylphenyl)acrylamide], the IC50 in test [1] is under 100 nM; in test [2] (numeric bounds), over 10000 nM.

Turning to `C=CC(=O)Nc1cccc(C)c1Nc1ncc2oc(C(=O)c3c(F)c(OC)cc(OC)c3F)cc2n1` [Example 23, N-(2-((6-(2,6-difluoro-3,5-dimethoxybenzoyl)furo[3,2-d]pyrimidin-2-yl)amino)-3-methylphenyl)acrylamide], the IC50 was under 100 nM in test [1] and over 6650 nM in test [2] (numeric bounds).

For `C=CC(=O)Nc1cn(C)nc1Nc1cc2cc(C(O)c3c(F)c(OC)cc(OC)c3F)oc2cn1` (racemic) [Example 10, (±)-N-(3-((2-((2,6-difluoro-3,5-dimethoxyphenyl)(hydroxy)methyl)furo[2,3-c]pyridin-5-yl)amino)-1-methyl-1H-pyrazol-4-yl)acrylamide], the IC50 in test [1] was 100 to 1000 nM; in test [2] (numeric bounds) it was over 3300 nM.

Turning to `C=CC(=O)Nc1cc(N2CCN(CC)CC2)ccc1Nc1cc2cc(C(O)c3c(F)c(OC)cc(OC)c3F)oc2cn1` (racemic) [Example 5, (±)-N-(2-((2-((2,6-difluoro-3,5-dimethoxyphenyl)(hydroxy)methyl)furo[2,3-c]pyridin-5-yl)amino)-5-(4-ethylpiperazin-1-yl)phenyl)acrylamide], the IC50 is under 100 nM in test [1] and over 10000 nM in test [2] (numeric bounds).

Take `C=CC(=O)N[C@H]1CCOC[C@H]1Nc1cc2cc(-c3c(Cl)c(OC)cc(OC)c3Cl)oc2cn1` [Example 37, N-((3S,4S)-3-((2-(2,6-dichloro-3,5-dimethoxyphenyl)furo[2,3-c]pyridin-5-yl)amino)tetrahydro-2H-pyran-4-yl)acrylamide]: the IC50 in test [1] was 100 to 1000 nM; in test [2] (numeric bounds), over 10000 nM.

Regarding `C=CC(=O)Nc1cc(N2CCN(CC)CC2)ccc1Nc1cc2cc(C(=O)c3cc(OC)cc(OC)c3)oc2cn1` [Example 11, N-(2-((2-(3,5-dimethoxybenzoyl)furo[2,3-c]pyridin-5-yl)amino)-5-(4-ethylpiperazin-1-yl)phenyl)acrylamide], the values for the IC50 in test [1] and in test [2] (class symbols) were 100 to 1000 nM and 1000 to 10000 nM, respectively.

For the molecule `C=CC(=O)Nc1cc(N2CCN(CC)CC2)ccc1Nc1ncc2oc(C(=O)c3c(F)c(OC)cc(OC)c3F)cc2n1` [Example 20, N-(2-((6-(2,6-difluoro-3,5-dimethoxybenzoyl)furo[3,2-d]pyrimidin-2-yl)amino)-5-(4-ethylpiperazin-1-yl)phenyl)acrylamide], the IC50 in test [1] was under 100 nM; in test [2] (class symbols) it was 1000 to 10000 nM.

In the case of `C=CC(=O)N[C@H]1CCOC[C@H]1Nc1cc2cc(C(=O)c3c(F)c(OC)cc(OC)c3F)oc2cn1` [Example 12, N-((3S,4S)-3-((2-(2,6-difluoro-3,5-dimethoxybenzoyl)furo[2,3-c]pyridin-5-yl)amino)tetrahydro-2H-pyran-4-yl)acrylamide], the IC50 in test [1] was 100 to 1000 nM; in test [2] (numeric bounds) it was over 10000 nM.

As for `C=CC(=O)Nc1cccc(C)c1Nc1cc2cc(C(O)c3c(F)c(OC)cc(OC)c3F)sc2cn1` (racemic) [Example 28, (±)-N-(2-((2-((2,6-difluoro-3,5-dimethoxyphenyl)(hydroxy)methyl)thieno[2,3-c]pyridin-5-yl)amino)-3-methylphenyl)acrylamide], the results for the half-maximal inhibitory concentration (IC50) in test [1] and in test [2] (numeric bounds) were under 100 nM and over 10000 nM, respectively.

As to `C=CC(=O)Nc1cc(N2CCN(CC)CC2)ccc1Nc1cc2cc(C(=O)c3c(F)c(OC)cc(OC)c3F)sc2cn1` [Example 16, N-(2-((2-(2,6-difluoro-3,5-dimethoxybenzoyl)thieno[2,3-c]pyridin-5-yl)amino)-5-(4-ethylpiperazin-1-yl)phenyl)acrylamide], the concentration for half-maximal inhibition (IC50) in test [1] was under 100 nM; in test [2] (class symbols), 1000 to 10000 nM.

Regarding `C=CC(=O)Nc1cc(N2CCN(CC)CC2)ccc1Nc1cc2cc(C(=O)c3c(F)c(OC)cc(OC)c3F)[nH]c2cn1` [Example 21, N-(2-((2-(2,6-difluoro-3,5-dimethoxybenzoyl)-1H-pyrrolo[2,3-c]pyridin-5-yl)amino)-5-(4-ethylpiperazin-1-yl)phenyl)acrylamide], the IC50 is 100 to 1000 nM in test [1] and over 3300 nM in test [2] (numeric bounds).

Take `C=CC(=O)Nc1cc(N2CCN(CC)CC2)ccc1Nc1cc2cc(C(=O)Nc3c(F)c(OC)cc(OC)c3F)oc2cn1` [Example 32, 5-((2-acrylamido-4-(4-ethylpiperazin-1-yl)phenyl)amino)-N-(2,6-difluoro-3,5-dimethoxyphenyl)furo[2,3-c]pyridine-2-carboxamide]: the IC50 was 100 to 1000 nM in test [1] and over 3300 nM in test [2] (numeric bounds).

On to `C=CC(=O)Nc1cc(N2CCN(CC)CC2)ccc1Nc1cc2cc(C(=O)c3c(F)c(OC)cc(OC)c3F)n(C)c2cn1` [Example 19, N-(2-((2-(2,6-difluoro-3,5-dimethoxybenzoyl)-1-methyl-1H-pyrrolo[2,3-c]pyridin-5-yl)amino)-5-(4-ethylpiperazin-1-yl)phenyl)acrylamide], for which the IC50 lay in the range of 100 to 1000 nM in test [1] and 1000 to 10000 nM in test [2] (class symbols).

In the case of `C=CC(=O)N[C@H]1CCOC[C@H]1Nc1ncc2oc(C(=O)c3c(F)c(OC)cc(OC)c3F)cc2n1` [Example 35, N-((3S,4S)-3-((6-(2,6-difluoro-3,5-dimethoxybenzoyl)furo[3,2-d]pyrimidin-2-yl)amino)tetrahydro-2H-pyran-4-yl)acrylamide], the IC50 is under 100 nM in test [1] and over 10000 nM in test [2] (numeric bounds).

For the molecule `CCN1CCN(c2ccc(Nc3cc4cc(C(=O)c5c(F)c(OC)cc(OC)c5F)oc4cn3)c(NC(=O)/C=C\Cl)c2)CC1` [Example 33, (Z)-3-chloro-N-(2-((2-(2,6-difluoro-3,5-dimethoxybenzoyl)furo[2,3-c]pyridin-5-yl)amino)-5-(4-ethylpiperazin-1-yl)phenyl)acrylamide], the IC50 was under 100 nM in test [1] and over 3300 nM in test [2] (numeric bounds).

The values above are taken from patent US20200253978A1, “HETEROCYCLICS AS INHIBITORS OF FIBROBLAST GROWTH FACTOR RECEPTOR” (ADVENT PHARMA CO. LTD., priority 2017, published 2020).
